Among the test systems are MDA-N; ACHN renal; CAKI-1 renal; BT-549 breast; DU-145 prostate; HS 578T breast; NCI/ADR-RES ovarian; A549 NSCLC; SK-MEL-2 melanoma; HCT-15 colon; MCF7 breast; HCT-116 colon; SF-268 CNS; RPMI-8226 leukemia; CCRF-CEM leukemia; NCI-H460 lung; OVCAR-3 ovarian.
Common to all, as to experiment: growth of human tumour cells (NCI), 48 h

Each structure is given as a SMILES string.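 Compound exposure: 48 hours, 5 concentrations, 96-well plates. TGI: concentration producing complete growth inhibition.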 Some results are limits rather than exact numbers.

For `COCN1C(=O)[C@@H]2CCCN2C(=O)c2cc(OC)c(Cc3ccccc3)cc21`, the TGI in the assay with MDA-N, with ACHN renal, with CAKI-1 renal, with BT-549 breast, in the assay on DU-145 prostate and in the assay with HS 578T breast was more than 100 µM each time. For the same compound, the TGI with NCI/ADR-RES ovarian, with A549 NSCLC, in the assay on SK-MEL-2 melanoma, with HCT-15 colon, in the assay on MCF7 breast and with HCT-116 colon was more than 100 µM throughout. This compound also displayed a TGI in the assay on SF-268 CNS of more than 100 µM.

For `O=C1CSC(c2c[nH]c3ccccc23)N1c1cccc(Cl)c1` (stereo not drawn), the TGI in the assay with MDA-N is more than 100 µM; in the assay with ACHN renal, more than 100 µM; in the assay with RPMI-8226 leukemia it was 54.7 µM; in the assay with BT-549 breast, 96.6 µM; in the assay on CCRF-CEM leukemia, more than 100 µM; with NCI-H460 lung, more than 100 µM. Further, the TGI with DU-145 prostate was more than 100 µM; in the assay on HS 578T breast, more than 100 µM; in the assay with NCI/ADR-RES ovarian, more than 100 µM; in the assay with A549 NSCLC it was more than 100 µM; in the assay on SK-MEL-2 melanoma, 65.2 µM; in the assay with HCT-15 colon it was more than 100 µM. Further, the TGI with MCF7 breast, in the assay with OVCAR-3 ovarian, in the assay with HCT-116 colon and with SF-268 CNS was more than 100 µM each time.

For the compound `CSC(=S)CC(O)[C@@H]1CC2c3ccccc3C1c1ccccc12` (stereo partly drawn), the TGI was 28.3 µM in the assay with MDA-N; 29.5 µM in the assay on ACHN renal; 20.7 µM with RPMI-8226 leukemia; 34.2 µM with BT-549 breast; 10.6 µM in the assay with CCRF-CEM leukemia; 40.8 µM in the assay on NCI-H460 lung. For the same compound, the TGI in the assay with DU-145 prostate is 30.8 µM; in the assay on HS 578T breast, 80.2 µM; with NCI/ADR-RES ovarian, 54.7 µM; in the assay with A549 NSCLC it was 34.4 µM; with HCT-15 colon, 25.6 µM; in the assay with MCF7 breast, 62.1 µM. Besides, the figures for the TGI in the assay on OVCAR-3 ovarian, in the assay with HCT-116 colon and in the assay on SF-268 CNS were 22.2 µM, 20.9 µM and 45.4 µM, respectively.

With `CCCN(CCC)C(=S)Sc1nc(C)nc(N2CCN(c3nc(C)nc(SC(=S)N(CCC)CCC)c3[N+](=O)[O-])CC2)c1[N+](=O)[O-]`, the TGI is more than 100 µM in the assay with MDA-N; 40.9 µM with ACHN renal; more than 38.2 µM with RPMI-8226 leukemia; 34.4 µM in the assay with CAKI-1 renal; 26.9 µM in the assay on BT-549 breast; 8.55 µM with CCRF-CEM leukemia. Further, the TGI was more than 100 µM with NCI-H460 lung; more than 100 µM in the assay on DU-145 prostate; more than 100 µM in the assay on HS 578T breast; more than 100 µM with NCI/ADR-RES ovarian; more than 84.5 µM with A549 NSCLC; 30.9 µM in the assay with SK-MEL-2 melanoma. Further, the TGI in the assay on HCT-15 colon is 32.1 µM; in the assay on MCF7 breast it was 11.9 µM; in the assay on HCT-116 colon, 16.9 µM; in the assay on SF-268 CNS it was 98.5 µM.

On to `CCNC1=C(NC(=O)c2ccc(F)cc2)C(=O)c2ccccc2C1=O`, for which the TGI in the assay with MDA-N, in the assay on ACHN renal, in the assay on RPMI-8226 leukemia, with BT-549 breast, with CCRF-CEM leukemia and in the assay with NCI-H460 lung was more than 100 µM in each case. For the same compound, the TGI in the assay on DU-145 prostate, in the assay with HS 578T breast, in the assay with NCI/ADR-RES ovarian, in the assay with A549 NSCLC, with HCT-15 colon and in the assay on MCF7 breast was more than 100 µM throughout. In addition, the values for the TGI with OVCAR-3 ovarian, with HCT-116 colon and in the assay on SF-268 CNS were 85.7 µM, more than 100 µM and more than 100 µM, respectively.

As to `COC(=O)C(Cc1ccccc1)NC(=O)CSc1nnc(COc2ccc(Cl)cc2)n1-c1ccccc1` (stereo not drawn), the TGI in the assay with MDA-N came to 43.7 µM; in the assay with ACHN renal, 30.4 µM; in the assay with RPMI-8226 leukemia, 73.5 µM; in the assay on BT-549 breast, 69.6 µM; with CCRF-CEM leukemia, 63.3 µM; with NCI-H460 lung it was 35.7 µM. In addition, the TGI was more than 100 µM in the assay with DU-145 prostate; more than 100 µM with HS 578T breast; 55.2 µM with NCI/ADR-RES ovarian; more than 100 µM with A549 NSCLC; 33.2 µM in the assay on SK-MEL-2 melanoma; more than 100 µM with HCT-15 colon. Besides, the TGI in the assay on MCF7 breast was 58.5 µM; with HCT-116 colon, 54.6 µM; with SF-268 CNS, more than 100 µM.

Turning to `C/C=C1/CC(C(=O)OC)N(C(=O)OCc2ccccc2)C1=S` (stereo not drawn), the TGI was more than 100 µM with MDA-N; more than 100 µM in the assay on ACHN renal; more than 100 µM with RPMI-8226 leukemia; more than 100 µM with CAKI-1 renal; more than 100 µM with BT-549 breast; 38.8 µM with NCI-H460 lung. Also, the TGI with DU-145 prostate, with HS 578T breast, in the assay with NCI/ADR-RES ovarian, in the assay on A549 NSCLC, in the assay on SK-MEL-2 melanoma and in the assay with HCT-15 colon was more than 100 µM in each case. Further, the TGI in the assay with MCF7 breast, with OVCAR-3 ovarian, with HCT-116 colon and in the assay with SF-268 CNS was more than 100 µM in each case.

As to `COc1cccc(OC)c1C1ON=C(c2ccccc2)N1C12CC3CC(CC(C3)C1)C2` (stereo not drawn), the TGI in the assay on MDA-N, in the assay on ACHN renal, with RPMI-8226 leukemia, in the assay on CAKI-1 renal, with BT-549 breast and in the assay on NCI-H460 lung was more than 100 µM in each case. Besides, the TGI in the assay with DU-145 prostate, in the assay on HS 578T breast, in the assay with NCI/ADR-RES ovarian, in the assay on A549 NSCLC, with SK-MEL-2 melanoma and in the assay on HCT-15 colon was more than 100 µM throughout. Moreover, the TGI with MCF7 breast, with OVCAR-3 ovarian, in the assay on HCT-116 colon and in the assay on SF-268 CNS was more than 100 µM throughout.

Consider `CC(=O)N1C=Cc2c(c(C)c3c([nH]c4ccccc43)c2C)C1`, for which the TGI with MDA-N was 27.6 µM; with ACHN renal, 11.3 µM; with RPMI-8226 leukemia, 50.6 µM; in the assay with CAKI-1 renal, 25.4 µM; in the assay on BT-549 breast, 14.6 µM; in the assay on CCRF-CEM leukemia, more than 100 µM. In addition, the TGI with DU-145 prostate was 26.6 µM; in the assay on HS 578T breast it was 15.9 µM; in the assay on NCI/ADR-RES ovarian, 8.41 µM; in the assay with A549 NSCLC it was 24.2 µM; in the assay on SK-MEL-2 melanoma, 27.2 µM; in the assay on HCT-15 colon, 4.99 µM. Further, the TGI in the assay on MCF7 breast is 18.5 µM; with OVCAR-3 ovarian it was 4.55 µM; in the assay on HCT-116 colon, 3.21 µM; in the assay with SF-268 CNS, 32.6 µM.
